The text below walks through data of patent US20200375949A1, “BISPHENOL COMPOUNDS” (THE TRUSTEES OF THE UNIVERSITY OF PENNSYLVANIA, priority 2017, published 2020).

Structures are written as SMILES. ≈ marks a conversion by molar mass, not a printed value. Where “and” joins values, the source holds several entries; their conditions need not be identical. Identical values can stand only once. Like-named read-outs stand apart in the source and are kept apart here.

The subject of data set [1] is Streptococcus mutans wild-type strain UA159. In words: MIC assay, S. mutans. Type of data set: cell-based. The text has this: (§1) Streptococcus mutans wild-type strain UA159 was provided by Dr. Bettina Buttaro from Temple University Medical School, Philadelphia, Pa. Streptococcus gordonii strain DL1 and Streptococcus sanguinis strain 10904 were provided by Dr. Robert G. Quivey from University of Rochester Medical School. Streptococcus gordonii strain DL1 may be obtained from the American Type Culture Collection under accession #49818. Streptococcus sanguinis strain 10904 may be obtained from the National Collection of Type Cultures under accession #10904. Bacteria were routinely maintained on in Bacto™ Todd-Hewitt (TH) agar plates and liquid cultures were grown in Bacto™ Todd-Hewitt broth (THB). For growth of biofilms, THB was supplemented with 0.1% sucrose. Incubation was stagnant at 37° C. Bacterial strains Methicillin-Resistant Staphylococcus aureus HPV107, Staphylococcus epidermidis Fussel [NCTC 11047, R. Hugh 2466], Streptococcus sobrinus SL1 [CCM 6070, CNCTC 9/89], Enterococcus faecalis NCTC 775 [DSM 20478, JCM 8726, NCDO 581, Tissier], Pseudomonas aeruginosa [CCEB 481, MDB strain BU 277, NCIB 8295, NCPPB 1965, NCTC 10332, NRRL B-771, R. Hugh 815], Serratia marcescens BS 303 [CDC 813-60, NCIB 9155, NCTC 10211], and Acinetobacter baumannii 2208 [81, DSM 6974] were purchased from the American Type Culture Collection.
(§2) Stock solutions of compounds (10 mM) were serial diluted (200 μL, 100 μL, 50 μL, 10 μL, and 2 μL) in THB media in flat-bottom 96-well microtiter plates (total volume 100 μL). Bacterial cultures were grown in brain heart infusion or nutrient broth media to mid-exponential phase, back diluted to an OD of 0.1 and then inoculated into the 96-well plate to reach a final volume of 200 μL. Plates were inoculated at 37° C. in 5% CO2 for 20-24 hours upon which time wells were evaluated visually for bacterial growth and/or the wells' OD630 was evaluated via spectrophotometer. […] DMSO controls corresponding to each test concentration were performed. Biological triplicates were performed to confirm results.

In data set [2] the test system is red blood cells (mechanically defibrinated sheep blood). Put plainly: Hemolysis assay (cell lysis). The data set is classed as cell-based. Set-up: red blood cell lysis: unit not given here. Particulars: for red blood cell lysis: 1 hour, 37° C.; for concentration at which the membrane is perturbed: stated under the cell lysis example. The procedure:
The effects of the compounds described herein to lyse cells was evaluated in this example. Hemolysis assays were performed on mechanically defibrinated sheep blood (Hemostat Labs: DSB030). 1.5 mL of blood was placed into a microcentrifuge tube and centrifuged at 10,000 rpm for ten minutes. The supernatant was removed and then the cells were resuspended with 1 mL of phosphate-buffered saline (PBS). The suspension was centrifuged as previously, the supernatant was removed, and cells were resuspended two more times. The final cell suspension was diluted twentyfold with PBS. The twentyfold suspension dilution was then aliquoted into microcentrifuge tubes containing compound serially diluted in PBS. TritonX (1% by volume) served as a positive control (100% lysis marker) and sterile PBS served as a negative control (0% lysis marker). Samples were then placed in an incubator at 37° C. and shaken at 200 rpm. After 1 hour, the samples were centrifuged at 10,000 rpm for ten minutes. The absorbance of the supernatant was measured with a UV spectrometer at a 540 nm wavelength. See, e.g., Peng, Chem. Comm. 2011, 47, 4896-4898.

For another data set, the system named is membrane. In words: SYTOX green cell permeabilization assay. Type of data set: cell-based. Particulars: SYTOX green nucleic acid stain, FIGS. 1A-1F. Here is the method:
This example was performed to measure cell viability (i.e., cell permeabilization) by using a molecule that fluoresces when bound to DNA. The assay performed was a SYTOX™ assay green nucleic acid stain using compounds 1H and 2E. Specifically, when the membrane was perturbed, the molecule entered the cell, bound to DNA and fluoresced. The positive and negative controls were a quaternary ammonium compound (QAC; 12,3,2,3,12) and vancomycin, respectively. See the results shown in, e.g., FIGS. 1A-1F.

Data set [3] deals with Streptococcus sanguinis strain 10904. In words: MIC assay, S. sanguinis. The data set is classed as cell-based. Particulars: 5% CO2, 37° C., 20-24 hours.
From the text: as §1, §2

The subject of data set [4] is Streptococcus gordonii strain DL1. In words: MIC assay, S. gordonii. The data set is classed as cell-based. As to conditions: 5% CO2, 37° C., 20-24 hours.
From the text: as §1, §2

Another data set has as its system S. mutans. In words: S. mutans MBC assay. The data set is classed as cell-based, Streptococcus mutans. Particulars: for MBC: Streptococcus mutans, 3-log reduction in CFU count (99.9% bacterial death); for bacteriostatic or bactericidal properties (regrow analysis, MIC vs MBC): S. mutans. The procedure:
MIC assay was performed (above) and each well diluted (log-dilution) into a new 96-well microtiter plate. Five μL from each dilution was then plated on THB agar plates and incubated for 24 hours. Colony counts were performed to determine MBC which is defined as the concentration which there is a 3-log reduction in CFU count which corresponds to 99.9% bacterial death.

The next data set concerns S. mutans biofilm. Put plainly: S. mutans biofilm model / crystal violet. Type of data set: cell-based, Streptococcus mutans. Particulars: at concentrations of 250 μM or lower. Here is the method:
Stock solutions of the compounds (10 mM) were serial diluted in THB media supplemented with 0.1% sucrose (w/v) in flat-bottom 96-well microtiter plates (total volume 100 μL). Bacterial cultures were grown to mid-exponential phase, back diluted to an OD of 0.1 and then inoculated into the 96-well plate to reach a final volume of 200 μL. Plates were incubated at 37° C. in 5% CO2 for 24 hours (early stage biofilm) upon which time wells were evaluated visually for bacterial growth. DMSO controls corresponding to each test concentration were performed. Biological triplicates were performed to confirm results. Biofilm assay was performed (above) and wells are washed with 200 μL of DI H2O and dried for 24 hours at 37° C. Dried plates were incubated for 10 minutes at room temperature with 50 μL of 1% w/v crystal violet (25% ethanol in H2O). Excess crystal violet was removed via aspiration. 200 μL of DI H2O was added to each well and aspirated (repeat until all excess crystal violet is removed). Plates were then inverted and dried at 37° C. for 3-5 hours. Crystal violet stain biofilm mass was dissolved with 200 μL of 95% ethanol, 100 μL of which was then transferred to a fresh flat-bottom 96-well plate for absorbance measurements at 595 nm. DMSO controls corresponding to each test concentration were performed. Biological triplicate was performed to confirm results. […]

Data set [5] concerns Streptococcus mutans wild-type strain UA159. As to conditions: original assays in aerobic environment; cited from earlier work.
Data set [6] has the same test system. In words: MIC assay, S. mutans. Particulars: read-out: MIC S. mutans, aerobic conditions. The data set is classed as cell-based.
The mark [7] stands for this setting: planktonic, 5% CO2, 37° C., 20-24 hours.
The mark [8] stands for this setting: Concentration 500 μM, TritonX 100% lysis, PBS 0% lysis.

`CC(C)(C)c1ccc(Cc2ccc(C(C)(C)C)c(O)c2)cc1O` [Compound 3N, 5,5′-methylenebis(2-(tert-butyl)phenol)] displayed an MIC in data set [1] (setting [7]) of 2 µM. Besides, the “red blood cell lysis” value was 0.13 in data set [2] (Concentration 0.25 μM); −0.02 in data set [2] (Concentration 0.5 μM); −0.02 in [2] (Concentration 1 μM); −0.02 in data set [2] (Concentration 2 μM); 0.11 in data set [2] (Concentration 4 μM); −0.03 in data set [2] (Concentration 8 μM). Besides, the “red blood cell lysis” value is −0.02 in data set [2] (Concentration 16 μM); 0.02 in [2] (Concentration 32 μM); 0.38 in [2] (Concentration 63 μM); 0.43 in data set [2] (Concentration 125 μM); 0.34 in data set [2] (Concentration 250 μM); 0.74 in data set [2] (setting [8]). For the same molecule, the “concentration at which the membrane is perturbed” value (in [2]; in the data set on membrane) was 32 µM in each case.

As for `C=CCc1ccc(O)c(-c2ccc(O)c(CC=C)c2)c1` [Compound A1, honokiol, reference compound], the MIC in data set [1] (5% CO2-supplemented environment) is 66.6 µg/mL; in [1] (setting [7]), 250 µM; in data set [3], 125 µM (≈ 33.3 µg/mL); in [4] it was 125 µM (≈ 33.3 µg/mL); in data set [6], 125 µM and 33.3 µg/mL. The bactericidal activity result in the data set with S. mutans (at concentrations of 250 μM or lower) was “not bactericidal”. Further, the “inhibition of biofilm growth” value in the data set with S. mutans biofilm was “unable to inhibit biofilm growth”. Further, the “MIC S. mutans, literature value” in data set [5] is 10 µg/mL (≈ 37.5 µM).

For the molecule `Cc1cc(O)c(C)c(O)c1-c1cc(C(C)(C)C)c(O)c(C(C)(C)C)c1` [Compound A2, 3′,5′-Di-tert-3,6-methyl-[1,1′-biphenyl]-2,4,4′-triol], the MIC in [1] (setting [7]) came out at 32 µM; in [3], 32 µM (≈ 11 µg/mL); in data set [4], 32 µM (≈ 11 µg/mL). Also, the minimal bactericidal concentration (MBC) with S. mutans was 63 µM (≈ 21.6 µg/mL).

With `Cc1cc(-c2cc(C)c(O)c(C(C)(C)C)c2)c(C(C)C)cc1O` [Compound A7], the figures for the MIC in data set [1] (setting [7]), in data set [3] and in [4] were 32 µM, 32 µM (≈ 10 µg/mL) and 16 µM (≈ 5 µg/mL), respectively. The minimum bactericidal concentration (MBC) in the data set on S. mutans came to 32 µM (≈ 10 µg/mL).

In the case of `CC(C)(C)c1cc(-c2c(O)ccc3cc(Br)ccc23)cc(C(C)(C)C)c1O` [Compound B5, 6-Bromo-1-(3,5-di-tert-butyl-4-hydroxyphenyl)naphthalen-2-ol], the MIC in data set [1] (setting [7]) is 8 µM; in data set [3], 4 µM (≈ 1.71 µg/mL); in data set [4], 16 µM (≈ 6.84 µg/mL). For the same molecule, the “bacteriostatic or bactericidal properties (regrow analysis, MIC vs MBC)” value with S. mutans was “bacteriostatic”. Further, the MBC with S. mutans turned out to be 125 µM (≈ 53.4 µg/mL).

In the case of `C=CCc1cc(-c2c(O)ccc3cc(Br)ccc23)cc(C(C)(C)C)c1O` [Compound B8, 1-(3-Allyl-5-(tert-butyl)-4-hydroxyphenyl)-6-bromonaphthalen-2-ol], the results for the MIC in data set [1] (setting [7]), in data set [3] and in data set [4] were 16 µM, 8 µM (≈ 3.29 µg/mL) and 16 µM (≈ 6.58 µg/mL), respectively. Moreover, the “bacteriostatic or bactericidal properties (regrow analysis, MIC vs MBC)” value with S. mutans is on record as “bactericidal”. The same molecule returned an MBC with S. mutans of 32 µM (≈ 13.2 µg/mL).

For `Cc1cc(-c2c(O)ccc3ccccc23)cc(C(C)(C)C)c1O` [Compound B9, 1-(3-(tert-Butyl)-4-hydroxy-5-methylphenyl)naphthalen-2-ol], the results for the MIC in data set [1] (setting [7]), in [3] and in [4] were 32 µM, 32 µM (≈ 9.8 µg/mL) and 32 µM (≈ 9.8 µg/mL), respectively. For the same molecule, in the data set on S. mutans, the MBC was 32 µM (≈ 9.8 µg/mL).

In the case of `COC(=O)c1cc2c(-c3cc(C(C)C)c(O)c(C(C)C)c3)c(O)ccc2cc1O` [Compound B10, Methyl 3,7-dihydroxy-8-(4-hydroxy-3,5-diisopropylphenyl)-2-naphthoate], the results for the minimum inhibitory concentration (MIC) in data set [1] (setting [7]), in data set [3] and in data set [4] were 32 µM, 8 µM (≈ 3.16 µg/mL) and 8 µM (≈ 3.16 µg/mL), respectively. In the data set with S. mutans, this molecule came in with an MBC of 32 µM (≈ 12.6 µg/mL).

For `CCCc1cc(-c2c(O)ccc3cc(OC)ccc23)cc(C(C)(C)C)c1O` [Compound B11, 1-(3-(tert-Butyl)-4-hydroxy-5-propylphenyl)-6-methoxynaphthalen-2-ol], the minimum inhibitory concentration (MIC) in data set [1] (setting [7]) turned out to be 16 µM; in [3], 8 µM (≈ 2.92 µg/mL); in data set [4], 16 µM (≈ 5.83 µg/mL). In addition, in the data set on S. mutans, the “bacteriostatic or bactericidal properties (regrow analysis, MIC vs MBC)” value is “bactericidal”. The molecule further returned an MBC with S. mutans of 63 µM (≈ 23 µg/mL).

For `CC(C)(C)c1ccc(CCc2ccc(C(C)(C)C)c(O)c2)cc1O` [Compound C2, 5,5′-(Ethane-1,2-diyl)bis(2-(tert-butyl)phenol)], the minimum inhibitory concentration (MIC) in data set [1] (setting [7]) turned out to be 2 µM; in data set [3], 2.5 µM (≈ 0.816 µg/mL); in [4], 1.25 µM (≈ 0.408 µg/mL). Moreover, in the data set with S. mutans, the “bacteriostatic or bactericidal properties (regrow analysis, MIC vs MBC)” value was “bactericidal”. Further, the MBC against S. mutans worked out at 4 µM (≈ 1.31 µg/mL). Besides, the “lysis of blood cells” value in [2] is “lyses blood cells at high concentrations”. Further, the “red blood cell lysis” value in data set [2] (Concentration 0.25 μM) is 0.02; in data set [2] (Concentration 0.5 μM), 0.01; in data set [2] (Concentration 1 μM), −0.02; in [2] (Concentration 2 μM) it was −0.02; in data set [2] (Concentration 4 μM), −0.01; in data set [2] (Concentration 8 μM) it was −0.03. The “red blood cell lysis” value in data set [2] (Concentration 16 μM) is −0.03; in data set [2] (Concentration 32 μM) it was 0.07; in data set [2] (Concentration 63 μM), 0.29; in [2] (Concentration 125 μM), 0.43; in data set [2] (Concentration 250 μM), 0.70; in data set [2] (setting [8]), 0.48. The “concentration at which the membrane is perturbed” value (in data set [2]; in the data set with membrane) was 32 µM in each case.

What is called MIC is the smallest concentration in the dilution series that meets the test's criterion for growth inhibition. One may read the MBC as the smallest concentration meeting the test's criterion for killing.
